Series [1] concerns FIPV serotype I (Black I). Put plainly: Colorimetric CPE bioassay. The format is cell-based, feline infectious peritonitis virus (FIPV). The note with it: for EC50: read-out: EC50 against Black I (serotype I FIPV).
Series [2] has as its system FIPV II. The note with it: cited from earlier work.
For series [3], the system named is FIPV serotype II (WSU-79-1146). Put plainly: Combined anticoronaviral therapy. Format: cell-based, feline infectious peritonitis virus (FIPV). The note with it: WSU-79-1146, CRFK cells, alone and combined determined concurrently.
Series [4] concerns feline infectious peritonitis (FIP). As to conditions: cited from earlier work; for Cats clinically cured of FIP: retrospective study, treated with either GC376 or GS-441524.
Series [5] can be described thus: in vivo. Also noted: species or system cat. As to conditions: male; for Cmax: Cmax of GS-441524.
The test system of series [6] is FIPV serotype II (WSU-79-1146). The series is described as follows: Colorimetric CPE bioassay. As to conditions: for EC50: read-out: EC50 against WSU-79-1146 (serotype II FIPV). The format is cell-based, feline infectious peritonitis virus (FIPV).
Details of series [7]: method as in not printed at the place. As to conditions: read-out: Cmax of GS-441524; subcutaneously administered at 5 mg/kg, cats; ref not given; cited from earlier work.
Series [8] is described as follows: Single dose pharmacokinetics of orally administered MPV in SPF cats. Format: in vivo, cat.
Series [9] concerns CEM/C1 human cell line. The note with it: cited from earlier work.
For series [10], the system named is CRFK cells. The note with it: cited from earlier work.
The mark [11] stands for this setting: FCWF-4 CU cells, MOI 0.1, 72 h, monotherapy.
The mark [12] stands for this setting: clinical trial, naturally occurring FIP.
The mark [13] stands for this setting: Alphacoronavirus 1, FCWF-4 CU cells, MOI 0.1, 72 h, monotherapy.
The mark [14] stands for this setting: owner survey, unlicensed GS-441524.
Setting [15] is: male, serum, po, 10 mg/kg, 10 mg/kg oral molnupiravir, mean of 3 cats.
[16] abbreviates: serum MPV, 10 mg/kg oral molnupiravir, mean of 3 cats, 10 mg/kg.
Setting [17] is: Alphacoronavirus 1, read-out: EC50, combination experiment (A) nirmatrelvir and MPV.
[18] abbreviates: Alphacoronavirus 1, CRFK cells, MOI 0.1, 72 h, monotherapy.
[19] abbreviates: Alphacoronavirus 1, read-out: EC50, combination experiment (C) remdesivir and nirmatrelvir.

Where two headings read alike, the source gives them in different places.

By EC50 is commonly meant the concentration giving half of the maximal effect. With `CC(C)C[C@H](NC(=O)OCc1ccccc1)C(=O)N[C@@H](CC1CCNC1=O)C(O)S(=O)(=O)O` (stereo partly shown) [GC376], the EC50 in series [1] (setting [11]) was 10 nM; in series [2] (prior study, read-out: EC50 against FIPV II), 900 nM; in [3] (read-out: EC50, combination experiment (B) GC376 and remdesivir) it was 406 nM.

On to `CC(C)C[C@H](NC(=O)OCc1ccccc1)C(=O)N[C@@H](C[C@@H]1CCNC1=O)C(O)S(=O)(=O)[O-].[Na+]` (stereo partly shown) [GC376], for which, in series [4] (setting [12]), the Cats in remission result is on record as “seven of the 20”. For the same molecule, the “Cats clinically cured of FIP” value in series [4] is on record as 29 of 30.

As a reminder, the Cmax is the highest concentration seen after dosing. As a reminder, the half-life is the time in which the quantity being followed falls by half. Higher therefore signals slow decline. The molecule `N#C[C@@]1(c2ccc3c(N)ncnn23)O[C@H](CO)[C@@H](O)[C@H]1O` [GS-441524] came in with a concentration at 24 h in [5] (cat, GS-441524 remaining in plasma 24 h post-treatment) of 0.22 to 2 µM. Further, the AUC(0-t) in series [5] (iv, 7 mg/kg, AUC0-24 of GS-441524) is 45 µM·h; in series [5] (po, 25 mg/kg, AUC (AUC0-24) of GS-441524) it was 89700 ng·h/mL. Moreover, the Cmax in [5] (iv, 7 mg/kg) is 6.9 µM; in series [5] (po, 25 mg/kg), 13300 ng/mL; in series [7] it was approximately 10 µM. This molecule had a half-life in [5] (po, 25 mg/kg, T1/2 of GS-441524) of 4.5 h. Further, the EC50 in series [1] (setting [13]) is 20 nM; in series [6] (Alphacoronavirus 1, CRFK, 72 h), 610 nM; in [2] (previously reported, read-out: EC50 against serotype II FIPV), 780 nM. Besides, the “Cats healthy and disease free at the time of publication” value in series [4] (setting [12]) is reported as 25 of 31. The “Cats with successful resolution of disease” value in [4] (neurological FIP, escalating dose) is 3 of 4. For the same molecule, in series [4] (owner survey responses), the “Cats with neurological or ocular signs successfully treated” value is recorded as 161 of 169. For the same molecule, the “Cats alive at the time of publication” value in [4] (owner survey, unlicensed GS-441524, n = 380) is 96.7%. Besides, in series [4] (setting [14]), the Cats considered cured is reported as 54.0%. In addition, the “Cats still being monitored in the 12-week observation period” value in series [4] (setting [14]) was 43.3%. Moreover, in [4], the “Cats clinically cured of FIP” value is listed as 29 of 30.

What is called CL/F is clearance divided by bioavailability, as obtained after extravascular dosing. In general, MRT refers to a mean duration of stay, worked out from the concentration-time curve. A word on the AUC: it is concentration integrated over time. Read a low AUC as less exposure. In the case of `CC(C)C(=O)OC[C@H]1O[C@@H](n2ccc(NO)nc2=O)[C@H](O)[C@@H]1O` [MPV, molnupiravir], in [1] (setting [13]), the EC50 was 16 nM. Further, the EC50 in [6] (Alphacoronavirus 1, CRFK, 72 h) was found to be 700 nM. Further, the “Detection of MPV in serum over 24 h” value in [8] (10 mg/kg oral MPV) was “not detected after the 12-h time point”. Also, in [8] (10 mg/kg oral MPV, Figure 3B), the “Peak detection time point in serum, aggregate of three cats” value is “approximately 1.5 h”. For the same molecule, in series [8] (setting [15]), the CL/F was 347 L/h/kg and the mean residence time MRT was 4.6 h. In series [8] (male, serum, po, 10 mg/kg, 10 mg/kg oral molnupiravir, mean of 3 cats, read-out: AUC0-t of MPV), the AUC(0-t) is 0.085 µM·h. Moreover, the Vd/F in [8] (male, serum, po, 10 mg/kg, 10 mg/kg oral molnupiravir, mean of 3 cats, read-out: Vz/F of MPV) was 881 L/kg. For the same molecule, in [8] (male, serum, po, 10 mg/kg, serum MPV, 10 mg/kg oral molnupiravir, individual cat), the exposure (AUC) is 39.6 ng·h/mL. Moreover, the AUC(0-t) in series [8] (male, serum, po, 10 mg/kg, serum MPV, 10 mg/kg oral molnupiravir, mean of 3 cats, read-out: AUC (AUC0-t) of MPV) turned out to be 27.5 ng·h/mL. Moreover, in series [8] (setting [16]), the “AUC (AUC0-t) of MPV” value came out at 27.5 ng·h/mL, the Cmax came to 0.04 µM and the “Cmax of MPV” value amounted to 14.2 ng/mL. Besides, in series [3] (setting [17]), the concentration for a half-maximal effect (EC50) was found to be 693 nM.

The term CC50 denotes the concentration that lowers cell viability or growth by half. In the case of `O=c1nc(NO)ccn1[C@@H]1O[C@H](CO)[C@@H](O)[C@H]1O` [NHC, β-D-N^4-hydroxycytidine], the EC50 worked out at 50 nM in series [1] (setting [11]) and 110 nM in series [6] (CRFK cells, MOI 0.1, 72 h, monotherapy). Also, in [1] (equivalent of 0.05 μM), the “EC50 against Black I expressed as” value was 0.0129 µg/mL. Moreover, the cytotoxic concentration (CC50) in series [9] is 7500 nM. Moreover, in [8] (in vivo), the “Serum exposure relative to the NHC EC50” value is “greater than the NHC EC50”. In addition, the “Kel of NHC” value in series [8] (in vivo, po, 10 mg/kg) was 0.2 h⁻¹. Also, in series [10], the “Cytotoxicity in CRFK cells” value is on record as “cytotoxicity has also been documented”.

Regarding `CCC(CC)COC(=O)[C@H](C)N[P@](=O)(OC[C@H]1O[C@@](C#N)(c2ccc3c(N)ncnn23)[C@H](O)[C@@H]1O)Oc1ccccc1` [RDV, remdesivir], the EC50 in series [1] (setting [13]) was found to be 30 nM; in series [6] (setting [18]), 180 nM; in [3] (Alphacoronavirus 1, read-out: EC50, combination experiment (B) GC376 and remdesivir), 181 nM; in [3] (setting [19]), 6420 nM.

Consider `CC(C)(C)[C@H](NC(=O)C(F)(F)F)C(=O)N1C[C@H]2[C@@H]([C@H]1C(=O)N[C@H](C#N)C[C@@H]1CCNC1=O)C2(C)C` [nirmatrelvir], for which the EC50 in [1] (Alphacoronavirus 1, 72 h) worked out at 16 nM; in series [6] (setting [18]), 1310 nM; in [3] (setting [17]) it was 1310 nM; in [3] (setting [19]) it was 2940 nM. In addition, the “Differential efficacy, EC50 for FIPV I relative to FIPV II” value in [6] (Black I vs WSU-79-1146) is approximately 100 fold.

The values are drawn from paper PMC9697187 (Viruses, 2022).
